One data set deals with T1, GIRK1/4(T-V) (Homo sapiens, UniProt P48544+P48549, T94V).
T1 construct: expressed in transfected cells; host or cells: Xenopus laevis oocytes (cRNA injection)
T1 sequence (P48549 1-501): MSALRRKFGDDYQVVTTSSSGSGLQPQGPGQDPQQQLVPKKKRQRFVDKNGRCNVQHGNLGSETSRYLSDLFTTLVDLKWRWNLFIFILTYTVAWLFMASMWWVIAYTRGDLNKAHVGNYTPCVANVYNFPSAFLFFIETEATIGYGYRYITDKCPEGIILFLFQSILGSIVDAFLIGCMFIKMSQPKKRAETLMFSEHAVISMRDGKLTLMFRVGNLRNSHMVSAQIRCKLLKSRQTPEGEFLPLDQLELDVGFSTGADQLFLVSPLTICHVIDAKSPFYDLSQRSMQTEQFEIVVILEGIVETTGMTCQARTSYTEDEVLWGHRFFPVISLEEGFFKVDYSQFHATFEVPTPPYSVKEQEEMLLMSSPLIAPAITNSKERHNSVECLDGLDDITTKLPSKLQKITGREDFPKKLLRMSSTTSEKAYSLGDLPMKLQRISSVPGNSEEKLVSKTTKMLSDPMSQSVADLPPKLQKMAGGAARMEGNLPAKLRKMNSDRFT
T1 sequence (P48544 1-419 T94V): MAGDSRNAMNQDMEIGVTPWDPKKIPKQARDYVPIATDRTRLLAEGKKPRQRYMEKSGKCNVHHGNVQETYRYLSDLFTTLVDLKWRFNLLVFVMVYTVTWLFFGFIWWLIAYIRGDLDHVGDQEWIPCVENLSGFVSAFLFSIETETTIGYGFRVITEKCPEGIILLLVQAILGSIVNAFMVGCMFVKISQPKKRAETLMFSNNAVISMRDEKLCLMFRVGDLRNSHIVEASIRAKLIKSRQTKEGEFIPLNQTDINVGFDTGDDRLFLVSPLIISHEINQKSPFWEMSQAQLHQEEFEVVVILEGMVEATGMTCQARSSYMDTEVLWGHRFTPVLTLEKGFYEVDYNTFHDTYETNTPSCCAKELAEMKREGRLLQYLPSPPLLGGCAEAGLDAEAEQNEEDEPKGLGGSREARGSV
Description: TEVC in Xenopus oocytes, single mutant GIRK1/4(T-V). It counts as cell-based. Conditions: GIRK1/4(T-V) single mutant. From the text: (§1) Molecular biology: For Xenopus oocyte expression, human GIRK1 and human GIRK4 cDNAs were subcloned into pGEMHE. For mammalian expression, human GIRK1 and human GIRK4 cDNAs were subcloned into pcDNA3 and pcDNA3.1/V5-His B, respectively (Invitrogen). Mouse GIRK2 cDNA was subcloned in the dual-function vector, pXoom. Point mutations were introduced using a standard Pfu-based mutagenesis technique according to the QuikChange protocol (Agilent). Mutations were verified by sequencing.
(§2) Electrophysiology of oocytes: Whole-oocyte currents were measured by conventional two-electrode voltage clamp (TEVC) with a GeneClamp 500 amplifier (Axon Instruments). Agarose cushion microelectrodes were filled with 1.5% (w/v) agarose in 3 M KCl and were used with resistances between 0.1 and 1.5 megaohms. […] Barium-sensitive basal currents from both groups, 1) Vehicle, 2) single concentration at 10 μM and 3) multiple concentrations of ML297 or GAT compounds in the presence of HK solution, were assessed at −80 mV using TEVC. Barium-sensitive currents were normalized to average basal current in the vehicle solutions. The HK solution contained the following: 96 mM KCl, 1 mM NaCl, 1 mM MgCl2, 5 mM KOH/HEPES, pH 7.4. The barium solution consisted of HK+10 mM BaCl2. Five to ten oocytes from the same batch (same frog) were recorded for each group, and the experiments were repeated in at least four batches. Data acquisition and analysis were carried out using pClamp9 (Molecular Devices) and OriginPro (Microcal) software.
(§3) To test these computational predictions, the inventors mutated each or both of the two M1 key wild-type GIRK4 subunit residues to the corresponding GIRK2 residues (GIRK4-V92I, GIRK4-T94V, GIRK4-V92I/T94V or GIRK4-dm) and vice-versa the GIRK2 residues to the corresponding GIRK4 ones (GIRK2-I97V, GIRK2-V99T, GIRK2-I97V/V99T or GIRK2-dm) (FIG. 35). […]

The nature of another data set: light-dark box (LD) test. The format is in vivo, rat. Conditions: 10 and 30 mg/kg. The procedure:
Light-dark box: Light-Dark Box test was preformed using a cage 52×100×39 cm divided into two equal sections by an opening. One section is brightly illuminated whereas the other section is dark. Animals were injected 30 min prior to testing with vehicle or ligand and then placed into the light side with immediate access to explore the entire cage. Time spent in the illuminated section was analyzed. The chamber was cleaned between each experiment.

A further data set addresses T2, GIRK1/2(IV-VT) (UniProt P48542+P48549, I97V/V99T).
T2 construct: expressed in transfected cells; host or cells: Xenopus laevis oocytes (cRNA injection)
T2 sequence (P48549 1-501): T1 sequence (P48549 1-501)
T2 sequence (P48542 1-425 I97V/V99T): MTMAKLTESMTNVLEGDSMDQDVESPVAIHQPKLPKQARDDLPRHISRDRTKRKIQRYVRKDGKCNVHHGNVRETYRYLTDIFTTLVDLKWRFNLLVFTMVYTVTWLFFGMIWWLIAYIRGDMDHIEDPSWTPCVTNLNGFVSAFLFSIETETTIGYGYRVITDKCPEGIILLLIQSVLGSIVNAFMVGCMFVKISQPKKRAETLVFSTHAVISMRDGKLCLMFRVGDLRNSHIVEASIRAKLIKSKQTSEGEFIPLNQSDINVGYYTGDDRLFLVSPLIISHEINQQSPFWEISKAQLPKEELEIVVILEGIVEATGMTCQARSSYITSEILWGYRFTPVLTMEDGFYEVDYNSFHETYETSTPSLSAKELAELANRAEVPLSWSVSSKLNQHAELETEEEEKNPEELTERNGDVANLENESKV
Briefly: TEVC in Xenopus oocytes, double mutant GIRK1/2(IV-VT). It counts as cell-based, human GIRK1, mouse GIRK2. The following applies: GIRK1/2(IV-VT) double mutant.
Description: as §1, §2, §3

Another data set can be described thus: elevated plus maze (EPM). The format is in vivo, rat. Conditions: 30 mg/kg; vehicle group 30.6±4.4; trend. The procedure: Elevated plus maze (EPM): The EPM, as described previously was performed in a black Plexiglas apparatus (Hamilton Kinder, San Diego, CA) that consists of two open arms and two closed arms each 50.17 cm long and 10.8 cm wide. The closed arms have walls that are 40.01 cm high. The entire apparatus is elevated 100 cm above the ground on a square aluminum base. For a testing period of 5 min, anxiety is estimated by the amount of time rats spend in the closed versus open arms. Test sessions were video recorded by ceiling mounted cameras.

The mark [1] stands for this setting: read-out: EMAX, % of the control GIRK1/2.

Results on 1 compound are retold here after US12351574B2, “Selective ligands for modulation of GIRK channels” (Northeastern University, priority 2018, dated 2025).

Each structure is given as a SMILES string.

What is called EC50 is the concentration needed to bring the measured effect to its halfway point. Consider `Cc1cc(NC(=O)Nc2ccc(Br)s2)n(-c2ccccc2)n1` [GAT1508, 1-(5-bromothiophen-2-yl)-3-(3-methyl-1-phenyl-1H-pyrazol-5-yl)urea], for which the figures for the EC50 at GIRK1/4(T-V) and at GIRK1/2(IV-VT) were 500 ± 470 nM and 940 ± 150 nM, respectively. For the same compound, the figures for the EMAX at GIRK1/4(T-V) and on GIRK1/2(IV-VT) were 1.12±0.03 and 1.68±0.04, respectively. The Emax at GIRK1/4(T-V) (setting [1]) is 7%; on GIRK1/2(IV-VT) (setting [1]), 72%. Moreover, the “time spent in the light compartment versus vehicle (in words)” value in the data set “light-dark box (LD) test” is given as “no difference”. Further, the “time spent on the open arm” value in the data set “elevated plus maze (EPM)” turned out to be 48.7 ± 8.3 s.
